Consider 30 molecules from patent publication US8629143B2, “Potassium channel modulators” (AbbVie Inc., priority 2009, dated 2014).

In the assay the target is T1, KCNQ 2/3 channels (HEK293 cells stably expressing human KCNQ2 and KCNQ3 subunits) (Homo sapiens, UniProt O43525+O43526).
T1 construct: expressed in transfected cells; host or cells: HEK293
Description: KCNQ2/3 channel activation, thallium flux FLIPR assay with BTC-AM dye. In kind it is cell-based. As to conditions: for Emax: HEK293, maximum response relative to the response produced by 10 μM retigabine (set at 100%), read-out: Max. %; for EC50: HEK293 cells expressing human KCNQ2 and KCNQ3, thallium flux, FLIPR. As to the method: The following example describes the assay that can be used to identify compounds that activate KCNQ 2/3 channels.
HEK293 cells stably expressing human KCNQ2 and KCNQ3 subunits were seeded in 96-well, black-walled, clear-bottomed, poly-D-lysine coated plates (BD Biosciences, Bedford, Mass.) at a density of 1×10^5 cells per well 24 hours before the assay. On the assay day, BTC-AM dye (Invitrogen, Carlsbad, Calif.) was loaded into the cells by replacing the cell culture medium with 55 μL/well of 3 μg/mL dye in DPBS. Dye loading was allowed to proceed for 2 hours at room temperature and then cells were washed twice with 50 μL/well of assay buffer (in mM: 10 HEPES pH 7.3, 5 glucose, 140 Na-gluconate, 2.5 K-gluconate, 3.6 Ca-gluconate, 2 MgSO4, 0.1 Ouabain) to remove unloaded dye. Cells were incubated in 50 μL of assay buffer before loading onto a FLIPR system (Molecular Devices, Sunnyvale, Calif.). Various concentrations of compounds to be assayed were added to the cells in 50 μL of assay buffer and incubated for 4 minutes. The fluorescence signal was initiated by adding 100 μL of assay buffer containing 6 mM TlNO3 and 10 mM K2SO4. Fluors were excited using the 488-nm line of an argon laser and emission was filtered using a 540±30 nm bandpass filter. Fluorescent signals were recorded for 3 minutes. Sums of the responses over basal responses were plotted versus concentrations of test compounds to obtain an EC50 value. The maximum response for each test compound was determined relative to the response produced by 10 μM retigabine. The maximum response of retigabine at 10 μM was set at 100%.

SMILES strings stand for the structures. Bounds are passed on as bounds.

Turning to `Cc1ccc(-c2nn(NC(=O)Cc3cc(F)cc(F)c3)c(=O)c3ccccc23)cc1C` [Example 166, 2-(3,5-difluorophenyl)-N-[4-(3,4-dimethylphenyl)-1-oxophthalazin-2(1H)-yl]acetamide], the Emax is 161% and the EC50 was in the range of 100 to 500 nM.
The matching figures for `O=C(Cc1ccc(Cl)c(F)c1)Nn1nc(-c2ccc(Cl)cc2)c2ccccc2c1=O` [Example 114, 2-(4-chloro-3-fluorophenyl)-N-[4-(4-chlorophenyl)-1-oxophthalazin-2(1H)-yl]acetamide]: 119% and 500 to 1000 nM.
The like results for `Cc1ccc(-c2nn(NC(=O)Cc3cc(F)cc(F)c3)c(=O)c3ccccc23)c(C)c1` [Example 162, 2-(3,5-difluorophenyl)-N-[4-(2,4-dimethylphenyl)-1-oxophthalazin-2(1H)-yl]acetamide] were, in that order, 164% and 100 to 500 nM.
The matching figures for `O=C(Cc1ccc(F)cc1)Nn1nc(-c2ccccc2)c2ccsc2c1=O` [Example 32, 2-(4-fluorophenyl)-N-(7-oxo-4-phenylthieno[2,3-d]pyridazin-6(7H)-yl)acetamide]: 46% and 1000 to 10000 nM.
Turning to `O=C(Cc1ccc(Cl)cc1)Nn1nc(C2CC2)c2ccccc2c1=O` [Example 22, 2-(4-chlorophenyl)-N-(4-cyclopropyl-1-oxophthalazin-2(1H)-yl)acetamide], the Emax amounted to 63% and the EC50 was 1000 to 10000 nM.
The matching figures for `O=C(Cc1ccc(Br)cc1)Nn1nc(-c2ccc(Cl)cc2)c2ccccc2c1=O` [Example 102, 2-(4-bromophenyl)-N-[4-(4-chlorophenyl)-1-oxophthalazin-2(1H)-yl]acetamide]: 112% and 500 to 1000 nM.
The matching figures for `Cc1ccc(-c2nn(NC(=O)CC3CC4CCC3C4)c(=O)c3ccccc23)c(C)c1` (racemic) [Example 160, (±)-2-(exo-bicyclo[2.2.1]hept-2-yl)-N-[4-(2,4-dimethylphenyl)-1-oxophthalazin-2(1H)-yl]acetamide]: 157% and < 100 nM.
The matching figures for `O=C(Cc1cc(F)cc(F)c1)Nn1nc(-c2ccccc2)c2ccccc2c1=O` [Example 18, 2-(3,5-difluorophenyl)-N-(1-oxo-4-phenylphthalazin-2(1H)-yl)acetamide]: 189% and 100 to 500 nM.
In the case of `O=C(CC1CC2CCC1C2)Nn1nc(Cc2ccc(Cl)cc2)c2ccccc2c1=O` (racemic) [Example 144, (±)-2-(exo-bicyclo[2.2.1]hept-2-yl)-N-[4-(4-chlorobenzyl)-1-oxophthalazin-2(1H)-yl]acetamide], the Emax came out at 139% and the EC50 was < 100 nM.
The like results for `O=C(Cc1cc(F)cc(F)c1)Nn1nc(-c2ccccc2)c2c(c1=O)CCC2` [Example 188, 2-(3,5-difluorophenyl)-N-(1-oxo-4-phenyl-1,5,6,7-tetrahydro-2H-cyclopenta[d]pyridazin-2-yl)acetamide] were, in that order, 131% and 1000 to 10000 nM.
The matching figures for `O=C(Cc1ccc(Cl)s1)Nn1nc(-c2ccc(Cl)cc2)c2ccccc2c1=O` [Example 112, N-[4-(4-chlorophenyl)-1-oxophthalazin-2(1H)-yl]-2-(5-chloro-2-thienyl)acetamide]: 92% and 100 to 500 nM.
The like results for `CC(C)c1ccc(-c2nn(NC(=O)Cc3ccc(Cl)cc3)c(=O)c3ccccc23)cc1` [Example 170, 2-(4-chlorophenyl)-N-[4-(4-isopropylphenyl)-1-oxophthalazin-2(1H)-yl]acetamide] were, in that order, 104% and 500 to 1000 nM.
Consider `O=C(C[C@H]1C[C@@H]2CC[C@H]1C2)Nn1nc(-c2ccc(Br)cc2)c2ccccc2c1=O` (racemic) [Example 84, (±)-2-(exo-bicyclo[2.2.1]heptan-2-yl)-N-[4-(4-bromophenyl)-1-oxophthalazin-2(1H)-yl]acetamide], for which the Emax was determined as 134% and the EC50 is < 100 nM.
The like results for `CC(C)(C)CC(=O)Nn1nc(C(F)(F)F)c2ccccc2c1=O` [Example 48, 3,3-dimethyl-N-[1-oxo-4-(trifluoromethyl)phthalazin-2(1H)-yl]butanamide] were, in that order, 77% and 1000 to 10000 nM.
The matching figures for `O=C(CC12CC3CC(CC(C3)C1)C2)Nn1nc(C2CC2)c2ccccc2c1=O` [Example 24, 2-(1-adamantyl)-N-(4-cyclopropyl-1-oxophthalazin-2(1H)-yl)acetamide]: 235% and < 100 nM.
The matching figures for `O=C(CC12CC3CC(CC(C3)C1)C2)Nn1nc(-c2ccc(Cl)cc2)c2c(F)ccc(F)c2c1=O` [Example 183, 2-(adamantan-1-yl)-N-[4-(4-chlorophenyl)-5,8-difluoro-1-oxophthalazin-2(1H)-yl]acetamide]: 178% and 100 to 500 nM.
With `CC(C)c1nn(NC(=O)CC23CC4CC(CC(O)(C4)C2)C3)c(=O)c2ccccc12` [Example 61, 2-(3-hydroxyadamantan-1-yl)-N-(4-isopropyl-1-oxophthalazin-2(1H)-yl)acetamide], the Emax came out at 26% and the half-maximal effective concentration (EC50) was > 10000 nM.
The matching figures for `O=C(Cc1cc(F)cc(F)c1)Nn1nc(C2CCCCC2)c2ccccc2c1=O` [Example 77, N-(4-cyclohexyl-1-oxophthalazin-2(1H)-yl)-2-(3,5-difluorophenyl)acetamide]: 145% and < 100 nM.
As to `O=C(Cc1ccc(F)cc1)Nn1nc(-c2ccccc2)c2c(F)ccc(F)c2c1=O` [Example 14, N-(5,8-difluoro-1-oxo-4-phenylphthalazin-2(1H)-yl)-2-(4-fluorophenyl)acetamide], the Emax came out at 171% and the EC50 was 100 to 500 nM.
The matching figures for `O=C(Cc1cc(F)cc(F)c1)Nn1nc(Cl)c2ccccc2c1=O` [Example 19, N-(4-chloro-1-oxophthalazin-2(1H)-yl)-2-(3,5-difluorophenyl)acetamide]: 45% and 1000 to 10000 nM.
For `CC(C)(CC(=O)Nn1nc(Cc2ccccc2)c2ccccc2c1=O)c1ccccc1` [Example 140, N-(4-benzyl-1-oxophthalazin-2(1H)-yl)-3-methyl-3-phenylbutanamide], the Emax amounted to 126% and the EC50 is < 100 nM.
As to `O=C(CC12CC3CC(CC(C3)C1)C2)Nn1nc(-c2ccc(C(F)(F)F)cc2)c2ccccc2c1=O` [Example 149, 2-(adamantan-1-yl)-N-{1-oxo-4-[4-(trifluoromethyl)phenyl]phthalazin-2(1H)-yl}acetamide], the Emax came to 133% and the EC50 is < 100 nM.
For the molecule `O=C(Cc1ccc(Cl)cc1)Nn1nc(-c2ccc(Cl)cc2)c2c(F)ccc(F)c2c1=O` [Example 182, 2-(4-chlorophenyl)-N-[4-(4-chlorophenyl)-5,8-difluoro-1-oxophthalazin-2(1H)-yl]acetamide], the Emax is 122% and the EC50 lay in the range of 100 to 500 nM.
The matching figures for `O=C(Cc1ccc(Cl)cc1)Nn1nc(Cl)c2ccccc2c1=O` [Example 21, N-(4-chloro-1-oxophthalazin-2(1H)-yl)-2-(4-chlorophenyl)acetamide]: 82% and 1000 to 10000 nM.
The matching figures for `O=C(Cc1ccc2ccccc2c1)Nn1nc(-c2ccc(Cl)cc2)c2ccccc2c1=O` [Example 121, N-[4-(4-chlorophenyl)-1-oxophthalazin-2(1H)-yl]-2-(2-naphthyl)acetamide]: 201% and 1000 to 10000 nM.
The matching figures for `COC(=O)c1ccc(-c2nn(NC(=O)Cc3ccc(Cl)cc3)c(=O)c3ccccc23)cc1` [Example 80, methyl 4-(3-{[(4-chlorophenyl)acetyl]amino}-4-oxo-3,4-dihydrophthalazin-1-yl)benzoate]: 80% and 100 to 500 nM.
As to `CC(C)(CC(=O)Nn1nc(-c2ccc(Cl)cc2)c2ccccc2c1=O)c1ccccc1` [Example 89, N-[4-(4-chlorophenyl)-1-oxophthalazin-2(1H)-yl]-3-methyl-3-phenylbutanamide], the Emax amounted to 118% and the EC50 is 100 to 500 nM.
The matching figures for `O=C(Cc1ccc(C(F)(F)F)cc1)Nn1nc(-c2ccc(Cl)cc2)c2ccccc2c1=O` [Example 99, N-[4-(4-chlorophenyl)-1-oxophthalazin-2(1H)-yl]-2-[4-(trifluoromethyl)phenyl]acetamide]: 81% and 500 to 1000 nM.
For `O=C(CC12CC3CC(CC(C3)C1)C2)Nn1nc(-c2ccccc2)c2sccc2c1=O` [Example 9, 2-(1-adamantyl)-N-(4-oxo-7-phenylthieno[2,3-d]pyridazin-5(4H)-yl)acetamide], the Emax came out at 241% and the half-maximal effective concentration (EC50) lay in the range of 500 to 1000 nM.
The like results for `O=C(Cc1cc(F)cc(F)c1)Nn1nc(-c2ccccc2)c2ccsc2c1=O` [Example 33, 2-(3,5-difluorophenyl)-N-(7-oxo-4-phenylthieno[2,3-d]pyridazin-6(7H)-yl)acetamide] were, in that order, 140% and 1000 to 10000 nM.

As a reminder, the EC50 is the midpoint of the concentration-response curve. A lower EC50 goes with higher potency in that assay.
